Measurements: patent publication US10730872B2, “Pesticidally active heterocyclic derivatives with sulphur containing sustitutents” (SYNGENTA PARTICIPATIONS AG, priority 2015, dated 2020)

Columns and labels:
Myzus persicae [1] = experiment: Myzus persicae (Green Peach Aphid): Feeding/Contact Activity; type: in vivo; settings: foliar, 144 h, application rate of 200 ppm, sprayed sunflower leaf discs, aphid population of mixed ages, 6 days after infestation
Description: (§1) Sunflower leaf discs were placed onto agar in a 24-well microtiter plate and sprayed with aqueous test solutions prepared from 10,000 ppm DMSO stock solutions. After drying, the leaf discs were infested with an aphid population of mixed ages. The samples were assessed for mortality 6 days after infestation.

Spodoptera littoralis [2] = experiment: Spodoptera littoralis (Egyptian Cotton Leaf Worm), sprayed cotton leaf discs; type: in vivo; settings: foliar, 72 h, application rate of 200 ppm, L1 larvae, 3 days after infestation
Method in brief: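 Cotton leaf discs on agar sprayed with aqueous dilutions of 10,000 ppm DMSO stocks, dried, then infested with five L1 larvae. Mortality, anti-feeding and growth inhibition scored against untreated discs 3 days after infestation. Control recorded when any one category exceeds the untreated sample.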

Spodoptera littoralis [3] = experiment: Spodoptera littoralis (Egyptian Cotton Leaf Worm), uptake by lettuce roots from agar; type: in vivo; settings: 144 h, test rate of 12.5 ppm, mixed with agar, absorbed by lettuce roots, Spodoptera eggs, 6 days after infestation, read-out: effect in at least one of the three categories (mortality, anti-feeding, or growth inhibition)
From the text: Test compounds were applied by pipette from 10,000 ppm DMSO stock solutions into 24-well plates and mixed with agar. Lettuce seeds were placed onto the agar and the multi well plate was closed by another plate which contained also agar. After 7 days the compound was absorbed by the roots and the lettuce grew into the lid plate. The lettuce leaves were then cut off into the lid plate. Spodoptera eggs were pipetted through a plastic stencil onto a humid gel blotting paper and the lid plate was closed with it. The samples were assessed for mortality, anti-feedant effect and growth inhibition in comparison to untreated samples 6 days after infestation.

Bemisia tabaci = Bemisia tabaci (Cotton White Fly): Feeding/Contact Activity; type: in vivo; settings: foliar, 144 h, application rate of 200 ppm, sprayed cotton leaf discs, adult white flies, 6 days after incubation
Description: Cotton leaf discs were placed on agar in 24-well microtiter plates and sprayed with aqueous test solutions prepared from 10,000 ppm DMSO stock solutions. After drying the leaf discs were infested with adult white flies. The samples were checked for mortality 6 days after incubation.

Thrips tabaci = Thrips tabaci (Onion Thrips) Feeding/Contact Activity; type: in vivo; settings: foliar, 144 h, application rate of 200 ppm, sprayed sunflower leaf discs, thrips population of mixed ages, 6 days after infestation
Description: as §1, with “on” for “onto”, “in” for “in a”, “plates” for “plate”, “drying” for “drying,”, “a thrips” for “an aphid”

Plutella xylostella = Plutella xylostella (Diamond Back Moth); type: in vivo; settings: 120 h, application rate of 200 ppm, artificial diet, L2 larvae, 5 days after infestation, read-out: effect in at least one of the two categories (mortality or growth inhibition)
Description: (§2) 24-well microtiter plates with artificial diet were treated with aqueous test solutions prepared from 10,000 ppm DMSO stock solutions by pipetting. After drying, the plates were infested with L2 larvae (10 to 15 per well). The samples were assessed for mortality and growth inhibition in comparison to untreated samples 5 days after infestation.

Euschistus heros = Euschistus heros (Neotropical Brown Stink Bug); type: in vivo; settings: 120 h, application rate of 200 ppm, sprayed soybean leaves, N2 nymphs, 5 days after infestation, read-out: effect in at least one of the two categories (mortality or growth inhibition)
Description: Soybean leaves on agar in 24-well microtiter plates were sprayed with aqueous test solutions prepared from 10,000 ppm DMSO stock solutions. After drying the leaves were infested with N2 nymphs. The samples were assessed for mortality and growth inhibition in comparison to untreated samples 5 days after infestation.

Diabrotica balteata = Diabrotica balteata (Corn Root Worm); type: in vivo; settings: 96 h, application rate of 200 ppm, sprayed maize sprouts, L2 larvae, 4 days after infestation, read-out: effect in at least one of the two categories (mortality or growth inhibition)
Description: as §2, with “Maize sprouts placed onto an agar layer in 24-well” for “24-well”, “plates” for “plates with artificial diet”, “spraying.” for “pipetting.”, “(6” for “(10”, “10” for “15”, “4” for “5”

Myzus persicae [4] = experiment: Myzus persicae (Green Peach Aphid). Intrinsic Activity; type: in vivo; settings: 120 h, test rate of 12 ppm, mixed with sucrose solution, Parafilm, 5 days after infestation
Description: Test compounds prepared from 10,000 ppm DMSO stock solutions were applied by pipette into 24-well microtiter plates and mixed with sucrose solution. The plates were closed with a stretched Parafilm. A plastic stencil with 24 holes was placed onto the plate and infested pea seedlings were placed directly on the Parafilm. The infested plate was closed with a gel blotting paper and another plastic stencil and then turned upside down. The samples were assessed for mortality 5 days after infestation.

Myzus persicae [5] = experiment: Myzus persicae (Green Peach Aphid). Systemic Activity; type: in vivo; settings: 144 h, test rate of 24 ppm, roots of infested pea seedlings in test solution, 6 days
Description: Roots of pea seedlings infested with an aphid population of mixed ages were placed directly into aqueous test solutions prepared from 10,000 DMSO stock solutions. The samples were assessed for mortality 6 days after placing seedlings into test solutions.

[6] = system: Frankliniella occidentalis; experiment: Frankliniella occidentalis (Western Flower Thrips): Feeding/Contact Activity; type: in vivo; settings: foliar, 168 h, application rate of 200 ppm, sprayed sunflower leaf discs, population of mixed ages, 7 days after infestation
Description: Sunflower leaf discs were placed on agar in 24-well microtiter plates and sprayed with aqueous test solutions prepared from 10,000 DMSO stock solutions. After drying the leaf discs were infested with a Frankliniella population of mixed ages. The samples were assessed for mortality 7 days after infestation.

Tetranychus urticae = Tetranychus urticae (Two-Spotted Spider Mite): Feeding/Contact Activity; type: in vivo; settings: foliar, 192 h, application rate of 200 ppm, sprayed bean leaf discs, mixed population (mobile stages), 8 days after infestation
Description: Bean leaf discs on agar in 24-well microtiter plates were sprayed with aqueous test solutions prepared from 10,000 ppm DMSO stock solutions. After drying the leaf discs were infested with a mite population of mixed ages. The samples were assessed for mortality on mixed population (mobile stages) 8 days after infestation.

Aedes aegypti = experiment: Aedes Aegypti (Yellow Fever Mosquito); type: in vivo; settings: 200 ppm in ethanol, dry deposit in 12 well plates, adult females, after 48 h and/or 24 h
Description: Test solutions, at an application rate of 200 ppm in ethanol, were applied to 12 well tissue culture plates. Once the deposits were dry, five, two to five day old adult female Aedes aegypti were added to each well, and sustained with a 10% sucrose solution in a cotton wool plug. Assessment of knockdown was made one hour after introduction, and mortality was assessed at 24 and 48 hours after introduction.

CCS(=O)(=O)c1cc(Br)c(N)nc1-c1nc2cc(C(F)(F)F)n(C3CC3)c(=O)c2n1C [Compound A44, 2-(6-amino-5-bromo-3-ethylsulfonyl-2-pyridyl)-5-cyclopropyl-3-methyl-6-(trifluoromethyl)imidazo[4,5-c]pyridin-4-one]
≥ 80%: mortality at 200 ppm (Myzus persicae [1]) | percent control (mortality, anti-feeding effect or growth inhibition) at 200 ppm (Spodoptera littoralis [2]) | percent effect (mortality, anti-feeding or growth inhibition) at 12.5 ppm (Spodoptera littoralis [3]) | mortality at 200 ppm (Bemisia tabaci) | mortality at 200 ppm (Thrips tabaci) | percent effect (mortality or growth inhibition) at 200 ppm (Plutella xylostella) | percent effect (mortality or growth inhibition) at 200 ppm (Euschistus heros) | effect mortality or growth inhibition at 200 ppm (Diabrotica balteata)

CCSc1cc(NC(=O)C2CC2)cnc1-c1nc2cc(C(F)(F)F)n(CC)c(=O)c2n1C [Compound A59, N-[6-[5-ethyl-3-methyl-4-oxo-6-(trifluoromethyl)imidazo[4,5-c]pyridin-2-yl]-5-ethylsulfanyl-3-pyridyl]cyclopropanecarboxamide]
≥ 80%: mortality at 200 ppm (Myzus persicae [1]) | percent control (mortality, anti-feeding effect or growth inhibition) at 200 ppm (Spodoptera littoralis [2]) | percent effect (mortality or growth inhibition) at 200 ppm (Plutella xylostella) | effect mortality or growth inhibition at 200 ppm (Diabrotica balteata) | mortality at 12 ppm (Myzus persicae [4])

CCn1c(C(F)(F)F)cc2nc(-c3ncc(N(C(=O)C4CC4)S(C)(=O)=O)cc3S(=O)(=O)CC)n(C)c2c1=O [Compound A21, N-[6-[5-ethyl-3-methyl-4-oxo-6-(trifluoromethyl)imidazo[4,5-c]pyridin-2-yl]-5-ethylsulfonyl-3-pyridyl]-N-methylsulfonyl-cyclopropanecarboxamide]
232 to 234 °C: melting point

CCS(=O)(=O)c1cc(Cl)c(N)nc1-c1nc2cc(C(F)(F)F)n(C3CC3)c(=O)c2n1C [Compound A43, 2-(6-amino-5-chloro-3-ethylsulfonyl-2-pyridyl)-5-cyclopropyl-3-methyl-6-(trifluoromethyl)imidazo[4,5-c]pyridin-4-one]
≥ 80%: mortality at 200 ppm (Myzus persicae [1]) | percent control (mortality, anti-feeding effect or growth inhibition) at 200 ppm (Spodoptera littoralis [2]) | percent effect (mortality, anti-feeding or growth inhibition) at 12.5 ppm (Spodoptera littoralis [3]) | mortality at 200 ppm (Bemisia tabaci) | mortality at 24 ppm (Myzus persicae [5]) | percent effect (mortality or growth inhibition) at 200 ppm (Plutella xylostella) | percent effect (mortality or growth inhibition) at 200 ppm (Euschistus heros) | mortality at 200 ppm [6] | effect mortality or growth inhibition at 200 ppm (Diabrotica balteata)

CCS(=O)(=O)c1cc(C2CC2)c(N)nc1-c1nc2cc(C(F)(F)F)n(C3CC3)c(=O)c2n1C [Compound A48, 2-(6-amino-5-cyclopropyl-3-ethylsulfonyl-2-pyridyl)-5-cyclopropyl-3-methyl-6-(trifluoromethyl)imidazo[4,5-c]pyridin-4-one]
≥ 80%: mortality at 200 ppm (Myzus persicae [1]) | percent control (mortality, anti-feeding effect or growth inhibition) at 200 ppm (Spodoptera littoralis [2]) | mortality at 200 ppm (Bemisia tabaci) | mortality at 24 ppm (Myzus persicae [5]) | percent effect (mortality or growth inhibition) at 200 ppm (Plutella xylostella) | percent effect (mortality or growth inhibition) at 200 ppm (Euschistus heros) | mortality at 200 ppm [6] | mortality at 200 ppm (Tetranychus urticae) | effect mortality or growth inhibition at 200 ppm (Diabrotica balteata)

CCS(=O)(=O)c1cc(Br)c(NC)nc1-c1nc2cc(C(F)(F)F)n(C3CC3)c(=O)c2n1C [Compound A52, 2-[5-bromo-3-ethylsulfonyl-6-(methylamino)-2-pyridyl]-5-cyclopropyl-3-methyl-6-(trifluoromethyl)imidazo[4,5-c]pyridin-4-one]
≥ 80%: mortality at 200 ppm (Myzus persicae [1]) | percent control (mortality, anti-feeding effect or growth inhibition) at 200 ppm (Spodoptera littoralis [2]) | percent effect (mortality, anti-feeding or growth inhibition) at 12.5 ppm (Spodoptera littoralis [3]) | mortality at 200 ppm (Bemisia tabaci) | mortality at 200 ppm (Thrips tabaci) | percent effect (mortality or growth inhibition) at 200 ppm (Plutella xylostella) | percent effect (mortality or growth inhibition) at 200 ppm (Euschistus heros) | effect mortality or growth inhibition at 200 ppm (Diabrotica balteata)

CCn1c(C(F)(F)F)cc2nc(-c3ncc(N(C)C4CC4)cc3S(=O)(=O)CC)n(C)c2c1=O [Compound A11, 2-[5-[cyclopropyl(methyl)amino]-3-ethylsulfonyl-2-pyridyl]-5-ethyl-3-methyl-6-(trifluoromethyl)imidazo[4,5-c]pyridin-4-one]
≥ 80%: mortality at 200 ppm (Myzus persicae [1]) | percent control (mortality, anti-feeding effect or growth inhibition) at 200 ppm (Spodoptera littoralis [2]) | percent effect (mortality, anti-feeding or growth inhibition) at 12.5 ppm (Spodoptera littoralis [3]) | percent effect (mortality or growth inhibition) at 200 ppm (Plutella xylostella) | percent effect (mortality or growth inhibition) at 200 ppm (Euschistus heros) | pest or weed control at 200 ppm (Aedes aegypti) | mortality at 200 ppm [6] | effect mortality or growth inhibition at 200 ppm (Diabrotica balteata)

CCn1c(C(F)(F)F)cc2nc(-c3ncc(NC4CC4)cc3S(=O)(=O)CC)n(C)c2c1=O [Compound A1]
≥ 80%: mortality at 200 ppm (Myzus persicae [1]) | percent control (mortality, anti-feeding effect or growth inhibition) at 200 ppm (Spodoptera littoralis [2]) | percent effect (mortality or growth inhibition) at 200 ppm (Plutella xylostella) | percent effect (mortality or growth inhibition) at 200 ppm (Euschistus heros) | pest or weed control at 200 ppm (Aedes aegypti) | mortality at 200 ppm [6] | mortality at 200 ppm (Tetranychus urticae) | effect mortality or growth inhibition at 200 ppm (Diabrotica balteata)

CCn1c(C(F)(F)F)cc2nc(-c3nc(N(C)C(=O)C4CC4)ccc3S(=O)(=O)CC)n(C)c2c1=O [Compound A10, N-[6-[5-ethyl-3-methyl-4-oxo-6-(trifluoromethyl)imidazo[4,5-c]pyridin-2-yl]-5-ethylsulfonyl-2-pyridyl]-N-methyl-cyclopropanecarboxamide]
≥ 80%: mortality at 200 ppm (Myzus persicae [1]) | percent control (mortality, anti-feeding effect or growth inhibition) at 200 ppm (Spodoptera littoralis [2]) | percent effect (mortality, anti-feeding or growth inhibition) at 12.5 ppm (Spodoptera littoralis [3]) | mortality at 200 ppm (Bemisia tabaci) | mortality at 24 ppm (Myzus persicae [5]) | percent effect (mortality or growth inhibition) at 200 ppm (Plutella xylostella) | percent effect (mortality or growth inhibition) at 200 ppm (Euschistus heros) | mortality at 200 ppm [6] | effect mortality or growth inhibition at 200 ppm (Diabrotica balteata)
